Reference: patent US11542471B2, “Method for producing ciliary marginal zone-like structure” (SUMITOMO CHEMICAL COMPANY, LIMITED, priority 2012, dated 2023)

Test system: cell aggregate containing a retinal tissue (RAX::GFP knock-in human ES cells, derived from KhES-1)
Test: Suspension culture of a human ES cell-derived cell aggregate containing retinal tissue in serum-free medium with a substance acting on the Wnt signal pathway; cryosection immunostaining
Type: cell-based
Details: 3 μM CHIR99021, serum-free medium, 3 days from day 18 of suspension culture
Protocol: The “proportion of Chx10 positive cells” in a retinal tissue contained in a cell aggregate produced as mentioned above can be examined by, for example, the following method. • (1) First, a cryosection of “a cell aggregate comprising a retinal tissue” is prepared. • (2) Then, immunostaining of Rax protein or, when a gene recombinant cell obtained by altering a Rax gene expressing cell to express a fluorescence protein such as GFP is used, the expression of the aforementioned fluorescence protein, is observed using a fluorescence microscope and so on, whereby a retinal tissue region expressing Rax gene is specified. • (3) Using the same section as the cryosection wherein the retinal tissue region expressing Rax gene has been specified or an adjacent section as a sample, the nucleus is stained with a nuclear staining reagent such as Dapi. Then, the number of stained nuclei in the above-specified retinal tissue region expressing Rax gene is counted, whereby the number of the cells in the retinal tissue region is measured. • (4) Using the same section as the cryosection wherein the retinal tissue region expressing Rax gene has been specified or an adjacent section as a sample, Chx10 protein is immunostained. […]

SMILES: Cc1c[nH]c(-c2cnc(NCCNc3ccc(C#N)cn3)nc2-c2ccc(Cl)cc2Cl)n1 [CHIR99021]
- appearance of RPE65 gene expressing cell in the cell aggregate: did not appear
- proportion of Chx10 positive cells in the retinal tissue (about 40% before addition): about 3%
